Data: patent US20250313563A1, “GLYCOGEN SYNTHASE KINASE 3 INHIBITORS AND USES THEREOF” (The Broad Institute, Inc., priority 2022, published 2025)
Where two headings read alike, the source gives them in different places.

Columns and labels:
[1] = system: β-catenin nuclear translocation in SH-SY5Y cells; experiment: β-catenin translocation assay; format: cell-based
Description: SH-SY5Y cells were seeded into a 96-well CellCarrier Ultra (Perkin Elmer) plate at a density of 1×10^5 cells/ml in complete DMEM. Sixteen hours following plating, media was changed to DMEM with 2% serum, and compound was added with a D300e Digital Dispenser (Tecan) for an incubation time of six hours. After compound incubation, media was removed, and cells were fixed with 4% PFA for 10 minutes at room temperature. Each well was washed three times with PBS-T and then blocked with buffer (1×PBS with 5% Normal Goat Serum and 0.3% Triton X-100) for 30 minutes at room temperature. β-Catenin primary antibody (Cell Signaling #8480) was added at 1:500 dilution in blocking buffer and the cells were allowed to incubate in primary overnight at 4° C. The following day, primary antibody was removed, each well was washed three times with PBS-T, and secondary antibody (1:2000 anti-rabbit AlexaFluor Plus 488 and 1:10,000 Hoechst 33342) was added and allowed to incubate for 60 minutes at room temperature protected from light. After one-hour, secondary antibody was removed and wells were washed four times with PBS-T before imaging on the Opera Phenix. Sixteen fields per well were imaged with a 20× water lens.
Images were quantified in the Columbus Image Data Storage and Analysis software. Cells were identified using the Hoechst nuclear stain to identify individual nuclei. Intensity of the nuclear stain was also used to determine cell viability (Viable cells <30% CV of Hoechst Intensity)

human GSK3β = human GSK3β (Homo sapiens (Human), UniProt P49841); experiment: pThr231 tau phosphorylation plate-based assay in HEK-huTau cells transfected with GSK3β; format: cell-based; details: GSK3β IC50 undetermined due to toxicity
Description: HEK293 or SH-SY5Y cells were obtained from American Type Culture Collection (ATCC, Manassas, VA) and cultured in Dulbecco's modified Eagle's medium (DMEM) supplemented with 10% fetal bovine serum (FBS), 10 units/ml penicillin, and 10 μg/ml streptomycin (all reagents were purchased from Gibco, Waltham, MA). Cell cultures were maintained in a humidified 5% (v/v) CO2/air environment at 37° C. When the cells reached 50-80% confluence, they were transfected with a complex consisting of a 3:1 ratio of FuGENE 6 Transfection Reagent (Promega, Madison, WI) and plasmid DNA. Plasmid DNA was balanced out across reactions using an empty plasmid so that the same amount of DNA was added per well. This transfection complex was prepared following the manufacturers protocol and added directly to the cell media for 24 or 48 hours prior to lysis.
293T cells stably expressing human 2N4R Tau were transfected with appropriate cDNA plasmids. 24 hours following transfection cells were treated with compound in a 10-point dose-response (from 1000× stocks of compound) and lysates harvested 2 hours later with cell extraction buffer (Life Technologies Cat #BN0001) or RIPA Buffer with Halt protease/phosphatase inhibitors added.
For pThr231 assay: Lysate was diluted 1:100 in assay buffer and Total Tau and pTau T231 was assessed by plate-based ELISA as per manufacturer instructions (MSD Cat #K15121D-1). Total fluorescence was measured using an Envison plate reader.
To test the potency and isoform selectivity of GSK3 small molecule inhibitors, HEK-huTau cells were transfected with plasmids containing either human GSK3α or GSK3β. Twenty-four hours after transfection, compounds were added at a 10-point dose response curve (at a range of 30 μM-3 nM) for a total of 2 hours, and cell lysates were probed for total tau and pThr231 using a plate-based assay.

[2] = biological target: GSK3α (GST-full length GSK3α) (Homo sapiens (Human), UniProt P49840); experiment: GSK3α TR-FRET kinase assay; format: biochemical; details: GMean, geometric mean
Procedure, shortened: (§1)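 1 nM GST-GSK3α/β + cpd, 30 min preinc; add 200 nM biotin-pS645 GS(631-650) peptide + ATP (α 4 μM / β 2 μM, or 1 mM); 100 min RT, 50 mM Tris pH 7.5, 20 mM MgCl2, 1% DMSO; EDTA stop; SA-d2/Tb-pSer641 Ab 60 min; 665/615 ratio → IC50.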

[3] = biological target: GSK3b (GST-full length GSK3b) (Homo sapiens (Human), UniProt P49841); experiment: GSK3b TR-FRET kinase assay; format: biochemical; details: GMean, geometric mean
Procedure, shortened: as §1

[4] = Microsomal stability (MIC), mouse; format: in vitro ADME, mouse (CD-1); details: mouse liver microsomes; for half-life at 1 μM: CD-1, read-out: Microsome stability (mouse), in vitro T1/2
Description: (§2) Stability of compound in liver microsomes was tested in duplicate by incubating compound at 1 μM for 60 minutes at 37° C. Compound level at 60 minutes was compared to level at 0 minutes, and percent remaining was calculated. Assay Parameters
(§3) Available species: human and mouse (CD-1). Compound requirements: 5 μL of a 10 mM DMSO solution. Incubation time: 60 minutes at 37° C. Test Concentration: 1 μM.
(§4) Microsomes with NADPH without compound-matrix interference. Microsomes plus compound without NADPH—non-enzymatic instability.

[5] = Microsomal stability (MIC), human; format: in vitro ADME; details: human liver microsomes
Description: as §2, §3, §4

[6] = system: MDR1-MDCK cell monolayers; experiment: MDR1/MDCK assay (blood-brain barrier penetration potential); format: in vitro ADME; details: 5 μM, pH 7.4, 120 minutes; for MDCK permeability (MDR1-MDCK); Mean; Papp (A − B): A to B; for MDCK permeability (MDR1-MDCK); Mean; Papp (B − A): B to A
Description: The MDR1/MDCK assay is run at Absorption Systems. This assay is used to determine the blood-brain barrier (BBB) penetration potential of a test compound using MDR1-MDCK cell monolayers. Catalog number EA203.
• Test compound at 5 μM in HBSSg with maximum DMSO concentration not greater than 1%.
• Confluent monolayers of MDR1-MDCK cells, 7 to 11 days old.
• Receiver well with 1% BSA in modified Hanks buffer (HBSSg) • Apical and basolateral side at pH 7.4 • Dose two monolayers in each direction (N=2) • Dose apical side for (A to B) assessment • Dose basolateral side for (B to A) assessment • Sample both apical and basolateral sides at 120 minutes • Determine the concentrations of test compound using a generic LC-MS/MS method with a minimum 4 point calibration curve.
• The quality of the cell monolayer batch is verified using control compounds before monolayers are released for use • The quality of each monolayer used in the assay is verified by a TEER measurement and by calculating the Papp for a control compound.

[7] = GSK3-A (TR-FRET 1 mM ATP), IC50, 1 mM ATP
[8] = GSK3-B (TR-FRET 1 mM ATP), IC50, 1 mM ATP
[9] = read-out: GSK3-A (TR-FRET 1 mM ATP), IC50, 1 mM ATP
[10] = read-out: GSK3-B (TR-FRET 1 mM ATP), IC50, 1 mM ATP

Sequence of GSK3α (GST-full length GSK3α) (P49840 whole entry): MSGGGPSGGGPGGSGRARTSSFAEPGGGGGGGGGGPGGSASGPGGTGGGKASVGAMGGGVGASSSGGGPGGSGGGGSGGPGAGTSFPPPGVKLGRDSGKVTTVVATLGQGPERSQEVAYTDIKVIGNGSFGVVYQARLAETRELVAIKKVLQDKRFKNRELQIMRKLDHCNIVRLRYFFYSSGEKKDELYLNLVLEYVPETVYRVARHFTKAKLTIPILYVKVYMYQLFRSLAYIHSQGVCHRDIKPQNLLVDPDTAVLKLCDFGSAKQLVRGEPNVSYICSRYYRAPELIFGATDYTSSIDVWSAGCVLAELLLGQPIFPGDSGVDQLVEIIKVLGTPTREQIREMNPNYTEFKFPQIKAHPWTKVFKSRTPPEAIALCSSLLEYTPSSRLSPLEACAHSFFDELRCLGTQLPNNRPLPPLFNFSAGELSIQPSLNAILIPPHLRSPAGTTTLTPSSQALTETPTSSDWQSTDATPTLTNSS
Sequence of GSK3b (GST-full length GSK3b) (P49841 whole entry): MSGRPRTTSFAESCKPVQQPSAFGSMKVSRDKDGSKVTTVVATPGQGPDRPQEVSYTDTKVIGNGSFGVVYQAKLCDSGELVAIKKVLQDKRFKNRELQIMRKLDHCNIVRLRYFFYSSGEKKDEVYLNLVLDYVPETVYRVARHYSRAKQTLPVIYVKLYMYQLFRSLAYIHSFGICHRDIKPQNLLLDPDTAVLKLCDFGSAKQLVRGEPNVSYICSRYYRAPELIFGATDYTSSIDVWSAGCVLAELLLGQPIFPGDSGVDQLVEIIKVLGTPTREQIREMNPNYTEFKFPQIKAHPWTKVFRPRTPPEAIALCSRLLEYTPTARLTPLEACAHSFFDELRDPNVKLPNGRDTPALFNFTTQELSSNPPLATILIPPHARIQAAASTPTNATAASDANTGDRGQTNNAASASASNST
Sequence of human GSK3β (P49841 whole entry): as above

## N#Cc1ccc2[nH]c(O)c(-c3ccc(CN4CCOCC4)cn3)c2c1 [AZ1080, AZD1080, reference compound]
[1]; Homo sapiens, SH-SY5Y cells, 6 hours
  IC50: 3000 nM

## CC[C@@]1(c2ccccc2)C2=C(CC(C)(C)CC2=O)Nc2[nH]ncc21 [BRD0705, reference compound]
[1]; HEK-huTau GSK3α vs SH-SY5Y β-catenin
  window between potency on tau phosphorylation by GSK3α and concentrations affecting β-catenin stabilization: > 5 fold
Human GSK3β
  toxicity of compound in HEK-huTau assay (doses): > 30 µM

## Cc1[nH]nc2c1C1(CN(S(=O)(=O)CC3CC3)C1)C1=C(CC(C)(C)CC1=O)N2 [Compound 107828]
[2]; [7]
  IC50: ≤ 100 nM
[3]; [8]
  IC50: 100 to 1000 nM
[4]
  half-life at 1 μM: 6.49 min

## CC(C)(C)Cc1[nH]nc2c1C1(CN(S(=O)(=O)CC3CC3)C1)C1=C(CC3(CCC3)CC1=O)N2 [Compound 107829]
[5]
  Microsome stability (human); in vitro T1/2: 8.877 min
[2]; [9]
  IC50: 1000 to 5000 nM
[3]; [10]
  IC50: 100 to 1000 nM
[4]
  Microsome stability (mouse); in vitro T1/2: 2.084 min

## CC(C)(C)Cc1[nH]nc2c1C(C)(c1cccc(S(=O)(=O)CC3CC3)c1)C1=C(CC(C)(C)NC1=O)N2 (centres unmarked) [Compound 108005]
[2]; [9]
  IC50: 100 to 1000 nM
[3]; [10]
  IC50: 100 to 1000 nM
[4]
  Microsome stability (mouse); in vitro T1/2: 0.69 min

## COc1cncc(F)c1-c1cccc([C@]2(C)C3=C(CC(C)(C)CC3=O)Nc3n[nH]c(CC(C)(C)C)c32)c1 [Compound 108954]
[2]; [7]
  IC50: 1000 to 5000 nM
[3]; [8]
  IC50: 100 to 1000 nM
[4]
  half-life at 1 μM: 8.59 min

## CC1(C)CC(=O)C2=C(C1)Nc1n[nH]c(C3CC3)c1C21CN(S(=O)(=O)CC2CC2)C1 [Compound 109152]
[2]; [7]
  IC50: 100 to 1000 nM
[3]; [8]
  IC50: 100 to 1000 nM
[4]
  half-life at 1 μM: 0.97 min

## CC(C)(C)Cc1[nH]nc2c1C(C)(c1cccc(S(C)(=O)=O)c1)C1=C(CC(C)(C)CC1=O)N2 (centres unmarked) [Compound 114687]
[5]
  Microsome stability (human); in vitro T1/2: 12.3 min
[2]; [9]
  IC50: 100 to 1000 nM
[3]; [10]
  IC50: ≤ 100 nM
[4]
  Microsome stability (mouse); in vitro T1/2: 6.4 min

## CN1CC2(C3=C(CC(C)(C)CC3=O)Nc3n[nH]c(C4CC(F)(F)C4)c32)c2ccccc21 (centres unmarked) [Compound 119048]
[5]
  Microsome stability (human); in vitro T1/2: 1.4 min
[2]; [9]
  IC50: 1000 to 5000 nM
[3]; [10]
  IC50: 100 to 1000 nM
[6]
  MDCK permeability (MDR1-MDCK); Mean; Papp Ratio (B − A/A − B) (efflux ratio): 42.3
  MDCK permeability (MDR1-MDCK); Mean; Papp (A − B): 1.65 10^−6 cm/s
  MDCK permeability (MDR1-MDCK); Mean; Papp (B − A): 70 10^−6 cm/s
[4]
  Microsome stability (mouse); in vitro T1/2: 0.5 min

## CC(C)(C)Cc1[nH]nc2c1C(C)(c1cc(S(C)(=O)=O)ccc1F)C1=C(CC(C)(C)CC1=O)N2 (centres unmarked) [Compound 125976]
[5]
  Microsome stability (human); in vitro T1/2: 26.2 min
[2]; [9]
  IC50: 1000 to 5000 nM
[3]; [10]
  IC50: 100 to 1000 nM
[6]
  MDCK permeability (MDR1-MDCK); Mean; Papp Ratio (B − A/A − B) (efflux ratio): 301
  MDCK permeability (MDR1-MDCK); Mean; Papp (A − B): 0.2 10^−6 cm/s
  MDCK permeability (MDR1-MDCK); Mean; Papp (B − A): 61.2 10^−6 cm/s
[4]
  Microsome stability (mouse); in vitro T1/2: 36 min

## CN1CC2(C3=C(CC(C)(C)CC3=O)Nc3n[nH]c(CC(C)(C)C)c32)c2ccccc21 (centres unmarked) [Compound 125978]
[5]
  Microsome stability (human); in vitro T1/2: 0.6 min
[2]; [9]
  IC50: 1000 to 5000 nM
[3]; [10]
  IC50: 100 to 1000 nM
[6]
  MDCK permeability (MDR1-MDCK); Mean; Papp Ratio (B − A/A − B) (efflux ratio): 7.49
  MDCK permeability (MDR1-MDCK); Mean; Papp (A − B): 10.8 10^−6 cm/s
  MDCK permeability (MDR1-MDCK); Mean; Papp (B − A): 81.2 10^−6 cm/s
[4]
  Microsome stability (mouse); in vitro T1/2: 0.6 min

## CC(C)(C)Cc1[nH]nc2c1C(C)(c1cccc(S(=O)(=O)C(F)(F)F)c1)C1=C(CC(C)(C)CC1=O)N2 (centres unmarked) [Compound 126395]
[2]; [9]
  IC50: 1000 to 5000 nM
[3]; [10]
  IC50: 100 to 1000 nM
[6]
  MDCK permeability (MDR1-MDCK); Mean; Papp Ratio (B − A/A − B) (efflux ratio): 8.9
  MDCK permeability (MDR1-MDCK); Mean; Papp (A − B): 6.48 10^−6 cm/s
  MDCK permeability (MDR1-MDCK); Mean; Papp (B − A): 57.6 10^−6 cm/s

## Cc1ccc(S(C)(=O)=O)cc1C1(C)C2=C(CC(C)(C)CC2=O)Nc2n[nH]c(CC(C)(C)C)c21 (centres unmarked) [Compound 126397]
[5]
  Microsome stability (human); in vitro T1/2: 104.9 min
[2]; [9]
  IC50: 1000 to 5000 nM
[3]; [10]
  IC50: ≤ 100 nM
[4]
  Microsome stability (mouse); in vitro T1/2: >145 min

## CC(C)(C)Cc1[nH]nc2c1C(C)(c1cccc(N3CCOCC3)c1)C1=C(CC(C)(C)CC1=O)N2 (centres unmarked) [Compound 126400]
[2]; [9]
  IC50: 1000 to 5000 nM
[3]; [10]
  IC50: 100 to 1000 nM
[6]
  MDCK permeability (MDR1-MDCK); Mean; Papp Ratio (B − A/A − B) (efflux ratio): 119
  MDCK permeability (MDR1-MDCK); Mean; Papp (A − B): 0.41 10^−6 cm/s
  MDCK permeability (MDR1-MDCK); Mean; Papp (B − A): 48.9 10^−6 cm/s

## CC1(C)CC(=O)C2=C(C1)Nc1n[nH]c(C3CC(F)(F)C3)c1C21COc2ccccc21 (centres unmarked) [Compound 127430]
[5]
  Microsome stability (human); in vitro T1/2: >145 min
[2]; [9]
  IC50: 1000 to 5000 nM
[3]; [10]
  IC50: 100 to 1000 nM
[4]
  Microsome stability (mouse); in vitro T1/2: 74.5 min
